Experimental data published in ChEMBL document CHEMBL3885881, “DrugMatrix”.

Species on record: Rattus norvegicus
Experiment: DrugMatrix - Regimen: Daily Repeat
Assay type: toxicity, organism-based, Sprague-Dawley
Parameters: regimen Daily Repeat, gender Male, age 6-8 weeks
Details: in vivo, po, 15 mg/kg, route oral GAVAGE, dose level Low, vehicle .5 % CMC; for ABSOLUTE BASOPHIL / ABSOLUTE EOSINOPHIL / ABSOLUTE LYMPHOCYTE / ABSOLUTE MONOCYTE / ABSOLUTE SEGMENTED NEUTROPHIL / BASOPHIL / EOSINOPHIL / ERYTHROCYTE COUNT / HEMATOCRIT / HEMOGLOBIN / LEUKOCYTE COUNT / LYMPHOCYTE / MEAN CORPUSCULAR HEMOGLOBIN / MEAN CORPUSCULAR HEMOGLOBIN CONCENTRATION / MEAN CORPUSCULAR VOLUME / MONOCYTE / NEUTROPHIL / NUCLEATED RED BLOOD CELLS / PLATELET COUNT: tissue Blood; for ALANINE AMINOTRANSFERASE / ALBUMIN / ALKALINE PHOSPHATASE / ASPARTATE AMINOTRANSFERASE / BLOOD UREA NITROGEN / CARBON DIOXIDE / CHLORIDE / CHOLESTEROL / CREATINE PHOSPHOKINASE / CREATININE / GLUCOSE / LACTATE DEHYDROGENASE / LIPASE / PHOSPHORUS / POTASSIUM / SODIUM / TOTAL BILIRUBIN / TOTAL PROTEIN / URIC ACID: tissue Plasma

C[C@]12CCC(=O)C=C1CC[C@@H]1[C@@H]2CC[C@@]2(C)[C@H]1CC[C@]2(C)O [METHYLTESTOSTERONE]
ABSOLUTE BASOPHIL (72 h, time 3 day): 0 CELLS/uL | ABSOLUTE EOSINOPHIL (72 h, time 3 day): 240 CELLS/uL | ABSOLUTE LYMPHOCYTE (72 h, time 3 day): 14115 CELLS/uL | ABSOLUTE MONOCYTE (72 h, time 3 day): 60.67 CELLS/uL | ABSOLUTE SEGMENTED NEUTROPHIL (72 h, time 3 day): 1817.67 CELLS/uL | BASOPHIL (72 h, time 3 day): 0% | EOSINOPHIL (72 h, time 3 day): 1.33% | ERYTHROCYTE COUNT (72 h, time 3 day): 5.48 x10E6/uL | HEMATOCRIT (72 h, time 3 day): 33.23% | HEMOGLOBIN (72 h, time 3 day): 12.9 G/DL | LEUKOCYTE COUNT (72 h, time 3 day): 16.23 x10E3/uL | LYMPHOCYTE (72 h, time 3 day): 87% | MEAN CORPUSCULAR HEMOGLOBIN (72 h, time 3 day): 23.53 pg | MEAN CORPUSCULAR HEMOGLOBIN CONCENTRATION (72 h, time 3 day): 38.8 G/DL | MEAN CORPUSCULAR VOLUME (72 h, time 3 day): 60.73 fL | MONOCYTE (72 h, time 3 day): 0.33% | NEUTROPHIL (72 h, time 3 day): 11.33% | NUCLEATED RED BLOOD CELLS (72 h, time 3 day): 0 /100WBC | PLATELET COUNT (72 h, time 3 day): 1314.67 x10E3/uL | ALANINE AMINOTRANSFERASE (72 h, time 3 day): 47.33 u/L | ALBUMIN (72 h, time 3 day): 4.2 G/DL | ALKALINE PHOSPHATASE (72 h, time 3 day): 275.33 u/L | ASPARTATE AMINOTRANSFERASE (72 h, time 3 day): 99.33 u/L | BLOOD UREA NITROGEN (72 h, time 3 day): 18.67 mg/dL | CARBON DIOXIDE (72 h, time 3 day): 27 mmol/L | CHLORIDE (72 h, time 3 day): 103 MEQ/L | CHOLESTEROL (72 h, time 3 day): 75 mg/dL | CREATINE PHOSPHOKINASE (72 h, time 3 day): 593 u/L | CREATININE (72 h, time 3 day): 0.23 mg/dL | GLUCOSE (72 h, time 3 day): 141 mg/dL | LACTATE DEHYDROGENASE (72 h, time 3 day): 578.33 u/L | LIPASE (72 h, time 3 day): 9 u/L | PHOSPHORUS (72 h, time 3 day): 11.9 mg/dL | POTASSIUM (72 h, time 3 day): 5.93 MEQ/L | SODIUM (72 h, time 3 day): 145.33 MEQ/L | TOTAL BILIRUBIN (72 h, time 3 day): 0.2 mg/dL | TOTAL PROTEIN (72 h, time 3 day): 5.8 G/DL | URIC ACID (72 h, time 3 day): 1.47 mg/dL | ABSOLUTE BASOPHIL (120 h, time 5 day): 0 CELLS/uL | ABSOLUTE EOSINOPHIL (120 h, time 5 day): 157.67 CELLS/uL | ABSOLUTE LYMPHOCYTE (120 h, time 5 day): 14288.33 CELLS/uL | ABSOLUTE MONOCYTE (120 h, time 5 day): 45 CELLS/uL | ABSOLUTE SEGMENTED NEUTROPHIL (120 h, time 5 day): 1275.67 CELLS/uL | BASOPHIL (120 h, time 5 day): 0% | EOSINOPHIL (120 h, time 5 day): 1% | ERYTHROCYTE COUNT (120 h, time 5 day): 5.89 x10E6/uL | HEMATOCRIT (120 h, time 5 day): 35.43% | HEMOGLOBIN (120 h, time 5 day): 13.6 G/DL | LEUKOCYTE COUNT (120 h, time 5 day): 15.77 x10E3/uL | LYMPHOCYTE (120 h, time 5 day): 90.33% | MEAN CORPUSCULAR HEMOGLOBIN (120 h, time 5 day): 23.1 pg | MEAN CORPUSCULAR HEMOGLOBIN CONCENTRATION (120 h, time 5 day): 38.4 G/DL | MEAN CORPUSCULAR VOLUME (120 h, time 5 day): 60.17 fL | MONOCYTE (120 h, time 5 day): 0.33% | NEUTROPHIL (120 h, time 5 day): 8.33% | NUCLEATED RED BLOOD CELLS (120 h, time 5 day): 0 /100WBC | PLATELET COUNT (120 h, time 5 day): 1359 x10E3/uL | ALANINE AMINOTRANSFERASE (120 h, time 5 day): 52.33 u/L | ALBUMIN (120 h, time 5 day): 4.13 G/DL | ALKALINE PHOSPHATASE (120 h, time 5 day): 322.67 u/L | ASPARTATE AMINOTRANSFERASE (120 h, time 5 day): 91 u/L | BLOOD UREA NITROGEN (120 h, time 5 day): 13.67 mg/dL | CARBON DIOXIDE (120 h, time 5 day): 26.67 mmol/L | CHLORIDE (120 h, time 5 day): 103 MEQ/L | CHOLESTEROL (120 h, time 5 day): 77.33 mg/dL | CREATINE PHOSPHOKINASE (120 h, time 5 day): 245 u/L | CREATININE (120 h, time 5 day): 0.17 mg/dL | GLUCOSE (120 h, time 5 day): 149.33 mg/dL | LACTATE DEHYDROGENASE (120 h, time 5 day): 232.33 u/L | LIPASE (120 h, time 5 day): 9.33 u/L | PHOSPHORUS (120 h, time 5 day): 12.6 mg/dL | POTASSIUM (120 h, time 5 day): 6.3 MEQ/L | SODIUM (120 h, time 5 day): 143.83 MEQ/L | TOTAL BILIRUBIN (120 h, time 5 day): 0.17 mg/dL | TOTAL PROTEIN (120 h, time 5 day): 5.87 G/DL | URIC ACID (120 h, time 5 day): 1.73 mg/dL
